Assay results as given in EP1726305A1, “Zinc salt of omeprazole and its enantiomers” (Ratiopharm GmbH, priority 2005, dated 2006).
In brackets after ≈: the same amount, converted by molar mass. Where two headings read alike, the source gives them in different places.

Tests used:
Assay type in all cases: physicochemical
[1] = Water content by Karl Fischer titration (Ph.Eur. 2.5.32); settings: oven temperature 130 °C
Excerpt: Während das Magnesiumsalz als Trihydrat vorliegt und daher per se einen erheblichen Wassergehalt von etwa 6,23% aufweist, ist der Wassergehalt des Zinksalzes des (-)-Enantiomers des Omeprazols ausgesprochen gering und liegt bei nur etwa 0,8%, was ebenfalls einen überraschenden Vorteil des Zinksalzes des (-)-Enantiomers des Omeprazols ausmacht. Diese Messungen erfolgten mittels Karl-Fischer-Titration gemäß Ph.Eur. 2.5.32 mit dem Gerät Aqua 40.00 (Fa. ECH Halle). Das Gerät war ausgestattet mit einem Ausheizofen für Feststoffproben. Die Ausheiztemperatur für die untersuchte substanz betrug 130 °C: Als KF-Reagenz wurde eingesetzt Hydranal (Coulomat AG, Riedel-de Haen. Als Standard wurde verwendet Natriumtartrat-dihydrat (Apura, Merck).

[2] = Solubility of saturated solutions in aqueous media, HPLC/UV; settings: for solubility thermodynamic at 0.5 h: saturated solution, n=1, 30 min ultrasound, read-out: Löslichkeit; for Löslichkeit: 0.5 h
Method: (§1) Insbesondere wurde zur Bestimmung der Schüttdichte jeweils etwa 250 ml Substanz, möglichst erschütterungsfrei in einen 250 ml Meßzylinder des Schütt-Stampf-Volumeters (Erweka SVM 22, Ser. Nr. 108.480.446) gefüllt und die Masse bestimmt (Schüttgewicht). Anschließend wurde der Meßzylinder 1250 Stampfvorgängen ausgesetzt, und das Stampfvolumen wurde abgelesen. Die Werte für die Schütt- bzw. Stampfdichte erhält man durch Division der Einwaage durch die jeweiligen Volumenwerte. Die Bestimmung wurde dreifach durchgeführt und aus den Einzelergebnissen jeweils der Mittelwert gebildet. Die Löslichkeit wurde bei Zimmertemperatur (25°C) bei verschiedenen pH-Werten untersucht, indem festes Material in den jeweiligen Medien durch Ultraschall und Schütteln soweit als möglich gelöst wurde. Die Proben wurden filtriert und über HPLC analysiert und mittels UV-Detektion vermessen.
Die Löslichkeit des Zinksalzes des (-)-Enantiomers des Omeprazols und des Magnesiumsalzes des (-)-Enantiomers des Omeprazols wurde wie folgt bestimmt. In den unten aufgeführten Medien wurden gesättigte Lösungen (n=1) hergestellt, die nach 30 Minuten Ultraschallbehandlung noch einen deutlichen Bodensatz zeigten. Der Überstand der gesättigten Lösungen wurde über einen Membranfilter (0,45µm, Millex HV 25 mm, Millipore) filtriert und die klare Lösung mittels einer HPLC-Methode auf den Gehalt des gelösten Salzes untersucht. (Reversed Phase Chromatographie, Gradientenmodus, Säule: Luna C18(2), 150 x 3 mm, Phenomenex, Eluent 1: 10mM Tris-(hydroxymethyl)-aminomethan-Puffer pH 9.0, Eluent 2 : Acetonitril).
Das Zinksalz des (-)-Enantiomers des Omeprazols wurde gemäß Beispiel 1 vorstehend hergestellt, das Magnesiumsalz des (-)-Enantiomers des Omeprazols gemäß der Offenbarung der WO 94/27988.

[3] = Bulk density and tapped density (Ph.Eur. 2.9.15, Erweka SVM 22 volumeter, 1250 taps); settings: mean of three determinations; for Stampfdichte: after 1250 taps
Method: Sofern nichts anderes angegeben ist, erfolgt die Bestimmung der Schüttdichte und Stampfdichte nach Ph.Eur. 5.0 General Notices 2.9.15.
as §1
Auf folgende Art und Weise wurde die Schüttdichte und die Stampfdichte des nach Beispiel 1 hergestellten Zinksalzes des (-)-Enantiomers des Omeprazols bestimmt und mit den auf entsprechende Art und Weise bestimmten Werten des Magnesiumsalzes des (-)-Enantiomers des Omeprazols verglichen. Das Magnesiumsalz des (-)-Enantiomers des Omeprazols wurde entsprechend der Offenbarung der WO 94/27988 hergestellt.
Zur Bestimmung der Schüttdichte wurden jeweils 250 ml Substanz möglichst erschütterungsfrei in einen 250 ml Meßzylinder des Schütt-Stampf-Volumeters (Erweka SVM 22, Ser. Nr. 108.480.446) gefüllt und die Masse bestimmt (Schüttgewicht). Anschließend wurde der Meßzylinder 1250 Stampfvorgängen ausgesetzt, und das Stampfvolumen wurde abgelesen. Die Werte für die Schütt- bzw. Stampfdichte erhält man durch Division der Einwaage durch die jeweiligen Volumenwerte. Die Bestimmung wurde dreifach durchgeführt und aus den Einzelergebnissen jeweils der Mittelwert gebildet. Tabelle 1

Molecule | Wassergehalt [1] | solubility thermodynamic at 0.5 h ([2]; demineralised water, dem. Wasser) [µg/mL] | solubility thermodynamic at 0.5 h ([2]; usp buffer, pH 6, aqueous buffer, USP-Puffer pH 6,0) [µg/mL] | solubility thermodynamic at 0.5 h ([2]; usp buffer, pH 6, aqueous buffer, USP-Puffer pH 6,8) [µg/mL] | solubility thermodynamic at 0.5 h ([2]; usp buffer, pH 7, aqueous buffer, USP-Puffer pH 7,4) [µg/mL] | Stampfdichte [3] | Schüttdichte [3] | Löslichkeit ([2]; demineralised water) | Löslichkeit ([2]; usp buffer, pH 6) | Löslichkeit ([2]; usp buffer, pH 7)
COc1ccc2nc([S@@+]([O-])Cc3ncc(C)c(OC)c3C)[nH]c2c1 [Magnesiumsalz des (-)-Enantiomers des Omeprazols] | ~6,23% | 930 (≈ 2690 µM) | 780 (≈ 2260 µM) | 900 (≈ 2610 µM) | 890 (≈ 2580 µM) | 242,68 g/l | 199,00 g/l |  |  | 
Zinksalz des (-)-Enantiomers von Omeprazol [Zinksalz des (-)-Enantiomers des Omeprazols] | ~0,8% |  |  |  |  | 481,59 g/l | 415,62 g/l | 0,02 mg/ml | 0,07 mg/ml | 0,04 mg/ml
